In assay [1] the target is T1, endogenous autotaxin (Homo sapiens, UniProt Q13822).
T1 construct: The increased endogenous LPC levels are cleaved by endogenous autotaxin; tissue Lampire Biologicals; host or cells: pooled human plasma (healthy female donors, sodium heparin)
The experiment in a line: Reduction of LPA in the Presence of Human Plasma. The class given is biochemical. The settings on record: 90% pooled human plasma, 3 hours at 37° C., total LPA by mass spec; arithmetic mean.

Assay [2] concerns the target T2, recombinant human autotaxin (Homo sapiens, UniProt Q13822).
T2 construct: full length human autotaxin with a C-terminal His tag transfected into 293E cells; His tag (C); made in house; host or cells: 293E cells
The experiment in a line: Inhibition of Autotaxin as Measured by Choline Release. The class given is biochemical. The following applies: LPC 16:0 30 μM, 37° C. 1 hour, arithmetic mean.

As a reminder, the IC50 is the concentration at which inhibition is half-maximal.

For `O=C(COCCc1cnn[nH]1)N1CCc2nc(NC3Cc4ccccc4C3)ncc2C1` [Example 1 and 1a, 1-[2-(2,3-dihydro-1H-inden-2-ylamino)-7,8-dihydropyrido[4,3-d]pyrimidin-6(5H)-yl]-2-[2-(1H-1,2,3-triazol-4-yl)ethoxy]ethanone], the half-inhibitory concentration (IC50) in assay [1] amounted to 10 nM; in assay [2], 5.7 nM.

Source of the values: patent US8969555B2, “Bicyclic pyrimidine compounds” (Eli Lilly and Company, priority 2013, dated 2015).
